Tests used:
freely-feeding rats = settings: central administration, 4 hour time period; cited from earlier work
rats = assay: Rat sleep/EEG studies; format: in vivo; settings: central administration at the onset of the normal sleep period
From the text: Therefore antagonists of its receptor may be useful in the treatment of sleep disorders including insomnia.

orexin-A: peptide ligand (agonist) of the orexin-1 receptor; amino acid sequence given in the 1st table (QPLPDCCRQKTCSCRLYELLHGAGNHAAGILTL; Orexin-A; UniProt O43612 34-66, looked up)
increase in food intake over control rats receiving vehicle (freely-feeding rats): approximately four-fold
arousal (rats): dose-related increase in arousal
paradoxical sleep and slow wave sleep 2 (rats): reduction in paradoxical sleep and slow wave sleep 2

From patent US6506774B1, “Use of orexin receptor antagonists” (SmithKline Beecham p.l.c., priority 1999, dated 2003)
